16 molecules from PubChem BioAssay (NCI) can be followed below.

Holding throughout (experiment): growth of human tumour cells (NCI), 48 h
Assay [1] has as its system T-47D breast.
Assay [2] relates to A498 renal.
In assay [3] the test system is RPMI-8226 leukemia.
The test system of assay [4] is HT29 colon.
Assay [5] has as its system KM12 colon.
Assay [6] deals with K-562 leukemia.
Assay [7] deals with NCI-H522 lung.
The subject of assay [8] is A549 NSCLC.
The test system of assay [9] is MDA-N.
Assay [10] relates to NCI/ADR-RES ovarian.
Assay [11] concerns ACHN renal.
The test system of assay [12] is LOX IMVI melanoma.
Assay [13] has as its system U251 CNS.
The test system of assay [14] is SNB-19 CNS.
The subject of assay [15] is NCI-H460 lung.
The subject of assay [16] is HOP-92 NSCLC.
Assay [17] deals with EKVX NSCLC.

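Values below derive from 48-hour exposures of cells grown in 96-well plates, with endpoints linearly interpolated between the two concentrations bracketing the appropriate inhibition level. TGI: total growth inhibition.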 Bounds are passed on as bounds.

Regarding `O=C1CSC(c2ccccc2)N1c1nc2cc3sc(N4C(=O)CSC4c4ccccc4)nc3cc2s1` (configuration not stated), the TGI in assay [1], in assay [2], in [3], in [4], in assay [5] and in assay [6] was above 100 µM in each case. Further, the TGI in assay [7], in assay [8], in [9], in [10], in assay [11] and in [12] was above 100 µM each time. For the same molecule, the TGI in assay [13], in [14], in assay [15], in assay [16] and in assay [17] was above 100 µM in each case.

As for `COC(=O)c1ccccc1/C=C1\Cc2c(C)c3c(c(C)c2C1=O)CCC3`, the TGI in assay [1], in assay [2], in assay [3], in assay [4], in [5] and in assay [6] was above 100 µM in each case. Moreover, the TGI in [7], in [8], in assay [9], in assay [10], in assay [11] and in [12] was above 100 µM each time. Moreover, the TGI in assay [13], in [14], in assay [15], in [16] and in [17] was above 100 µM throughout.

Regarding `C[N+]12CCCCC1C(COc1cccc3cccnc13)CCC2` (configuration not stated), the TGI in [1], in [2], in assay [3], in [4], in [5] and in assay [6] was above 100 µM each time. The TGI in [7], in [8], in assay [9], in assay [10], in [11] and in assay [12] was above 100 µM each time. Moreover, the TGI in [13], in assay [14], in [15], in [16] and in [17] was above 100 µM each time.

On to `COc1nn(Cc2ccccn2)c2ccc([N+](=O)[O-])cc12`, for which the TGI in assay [1], in assay [2], in assay [3], in [4], in assay [5] and in assay [6] was above 100 µM throughout. The TGI is above 100 µM in assay [7]; above 100 µM in assay [8]; 95.5 µM in assay [9]; above 100 µM in assay [10]; above 100 µM in [11]; above 100 µM in assay [12]. In addition, the TGI in assay [13] is above 100 µM; in assay [14], above 100 µM; in [15], above 100 µM; in assay [16] it was 84.2 µM; in [17], above 100 µM.

With `CCCCCCCCCCCCCCCCP(=O)(O)OCC(N)C(=O)O` (configuration not stated), the TGI was above 100 µM in assay [1]; 52.2 µM in assay [2]; 62.7 µM in [3]; above 100 µM in assay [4]; 43.7 µM in [5]; above 100 µM in assay [6]. The TGI in assay [7] is 42.8 µM; in [8], above 100 µM; in assay [9], above 100 µM; in assay [10] it was above 100 µM; in assay [11], 68.8 µM; in assay [12], 40.1 µM. For the same molecule, the TGI in [13] was above 100 µM; in [14], 44.8 µM; in assay [15], 64.9 µM; in assay [16], 48.2 µM; in assay [17], above 100 µM.

In the case of `CCCN(CCc1ccc(-c2ccccc2)cc1)CCc1ccc2n[nH]nc2c1`, the TGI was 19.2 µM in assay [1]; 36.2 µM in assay [2]; 28.1 µM in assay [3]; 23.6 µM in [4]; 34.1 µM in assay [5]; 18.4 µM in assay [6]. For the same molecule, the TGI in assay [7] came out at 25.9 µM; in assay [8], 30 µM; in [9], 19.1 µM; in assay [10], 47 µM; in assay [11], 25.4 µM; in assay [12] it was 28.6 µM. Further, the TGI in [13] came to 37.6 µM; in assay [14], 26.8 µM; in assay [15] it was 22.1 µM; in assay [16], 15.2 µM; in assay [17], 27.5 µM.

Turning to `O=C(CC(O)(C(F)(F)F)C(F)(F)F)C(c1ccccc1)C(O)(C(F)(F)F)C(F)(F)F` (configuration not stated), the TGI in [1], in assay [2], in assay [3], in [4], in assay [5] and in assay [6] was above 100 µM throughout. The TGI in [7] is above 100 µM; in assay [8], above 100 µM; in assay [9], above 100 µM; in [10], above 100 µM; in assay [11], 79.5 µM; in assay [12], above 100 µM. In addition, the TGI is above 100 µM in assay [13]; above 100 µM in [14]; above 100 µM in assay [15]; 13 µM in assay [16]; above 100 µM in [17].

With `Cn1c(-c2cccs2)cc(-c2cccs2)c1-c1cccs1`, the TGI was above 51.8 µM in [1]; above 100 µM in [2]; above 100 µM in [3]; above 100 µM in assay [4]; above 100 µM in [5]; above 100 µM in [6]. The TGI is above 93.5 µM in assay [7]; above 100 µM in assay [8]; above 100 µM in assay [9]; above 100 µM in assay [10]; above 100 µM in [11]; above 100 µM in [12]. Moreover, the TGI in assay [13], in [14], in assay [15], in assay [16] and in assay [17] was above 100 µM throughout.

`CC1=NN(c2cccc(S(=O)(=O)O)c2)C2(C1)C(Cl)C(=O)N2c1nc2ccccc2s1` (configuration not stated): the TGI is 40.4 µM in assay [1]; 34 µM in assay [2]; 4.47 µM in assay [3]; 22.2 µM in assay [4]; 27.4 µM in assay [5]; above 41.4 µM in assay [6]. Moreover, the TGI came out at 3.99 µM in [7]; 26.4 µM in assay [8]; 27.7 µM in assay [9]; 26.8 µM in [10]; 18.4 µM in assay [11]; 3.77 µM in assay [12]. Also, the TGI in assay [13] amounted to 16.3 µM; in [14], 27 µM; in [15], 26.3 µM; in assay [16] it was 9.95 µM; in assay [17], 26.7 µM.

For `O=C1c2ccccc2-c2nnc(-c3ccc([N+](=O)[O-])cc3)cc21`, the TGI in assay [1], in assay [2], in [3], in assay [4], in assay [5] and in assay [6] was above 10 µM throughout. Moreover, the TGI in [7], in [8], in assay [9], in assay [10], in [11] and in assay [12] was above 10 µM each time. Also, the TGI in assay [13], in assay [14], in [15], in assay [16] and in assay [17] was above 10 µM throughout.

With `Cc1sc2nc(N(C)C)oc(=O)c2c1C`, the TGI in assay [1], in [2], in assay [3], in assay [4], in [5] and in assay [6] was above 100 µM in each case. The TGI in assay [7], in assay [8], in [9], in assay [10], in [11] and in [12] was above 100 µM each time. For the same molecule, the TGI in assay [13], in assay [14], in assay [15], in assay [16] and in assay [17] was above 100 µM each time.

For `COc1ccc(CNc2ccn(C3OC(CO)C(O)C3O)c(=O)n2)cc1` (configuration not stated), the TGI in [1] was 94.7 µM; in [2], above 100 µM; in [3], above 100 µM; in [4], above 100 µM; in assay [5] it was above 100 µM; in assay [6], above 100 µM. The TGI in [7], in assay [8], in [9], in [10], in assay [11] and in assay [12] was above 100 µM in each case. In addition, the TGI in assay [13], in assay [14], in assay [15], in [16] and in [17] was above 100 µM in each case.

With `CN1CCCC2C(c3ccccc3)C(C3=NCCCC3)C(c3ccccc3)CC21` (configuration not stated), the TGI is above 100 µM in [1]; above 100 µM in [2]; 54.1 µM in assay [3]; 67.6 µM in assay [4]; above 100 µM in [5]; 37.6 µM in [6]. The TGI was 54.5 µM in assay [7]; above 100 µM in assay [8]; 41.4 µM in assay [9]; above 100 µM in assay [10]; above 100 µM in assay [11]; 55.2 µM in assay [12]. Further, the TGI in [13], in assay [14], in [15], in assay [16] and in assay [17] was above 100 µM throughout.

For `C[C@]12CC[C@H]3[C@@H](CCC4=CC(=O)CC[C@@H]43)[C@@H]1CC[C@]2(O)C(N)=O`, the TGI in [1], in assay [2], in assay [3], in [4], in [5] and in assay [6] was above 100 µM throughout. Besides, the TGI in assay [7], in assay [8], in assay [9], in [10], in assay [11] and in [12] was above 100 µM in each case. For the same molecule, the TGI in assay [13], in assay [14], in assay [15], in assay [16] and in assay [17] was above 100 µM throughout.

As to `COC(=O)C1C2OC(C)(C)OC2CN1S(=O)(=O)c1ccc(C)cc1` (configuration not stated), the TGI in [1], in assay [2], in assay [3], in assay [4], in [5] and in assay [6] was above 100 µM throughout. For the same molecule, the TGI in [7], in [8], in [9], in assay [10], in assay [11] and in assay [12] was above 100 µM throughout. Moreover, the TGI in assay [13], in assay [14], in assay [15], in [16] and in assay [17] was above 100 µM throughout.

Consider `Cc1nc2ccccc2c(=O)n1NC(=O)c1ccccn1`, for which the TGI in [1], in [2], in assay [3], in [4], in assay [5] and in [6] was above 100 µM each time. The TGI in assay [7], in assay [8], in [9], in assay [10], in assay [11] and in assay [12] was above 100 µM throughout. Also, the TGI in [13], in [14], in assay [15], in [16] and in assay [17] was above 100 µM each time.
